The values below come from patent US8404650B2, “Methods of treating cancer with doxazolidine and prodrugs thereof” (priority 2005, dated 2013).

Broadly, the half-life is the time in which the quantity being followed falls by half.

One data set concerns the target human plasmin (Homo sapiens, UniProt P00747). As to the kind of experiment: Plasmin activation of prodrug and release of Doxaz (HPLC). The class given is biochemical. The note with it: human, human plasmin; 37° C.; read-out: Half-life in the presence of plasmin. How it is done: Both Formulas IV and V were incubated with 15 μg/ml human plasmin and monitored by HPLC at 37° C. Just 4 min after the addition of plasmin, 20 percent of compound 10 was converted to Doxaz and roughly 50% of that Doxaz had hydrolyzed to Doxorubicin. Within 23 minutes, nearly all of the prodrug was converted to Doxaz and subsequently hydrolyzed to Doxorubicin.

Another data set concerns liver cancer. The following applies: circumstantial data; treatment of liver cancer; cited from earlier work.
Data set [1] can be described thus: Hydrolysis of Doxaz to Doxorubicin in buffers (HPLC). In kind it is physicochemical. The method, then: Doxaz stability in DMSO. Doxaz (22 mg, 40 μmol) was dissolve in 1 mL of DMSO-d6 (stored over activated 4 Å molecular sieves) and analyzed for purity by 500 MHz ^1H NMR. After a 10× dilution with DMSO to a concentration of 4 mM, the stability of Doxaz was then followed by HPLC, observing the relative peak area of the Doxaz peak at 6.6 min with constant injection volume. Doxaz hydrolyzed at a rate of <2% per day in DMSO. Doxaz stability in buffers. HPLC buffer, pH 7.4, 20 mM TEAA, was used for the measurement of hydrolysis of Doxaz. The buffer's pH was adjusted as needed with either triethyl amine or acetic acid to pH 10.4, 9.0, 6.0 and 5.0 with one sample left unchanged at pH 7.4. A volume of 1950 μL of each of these solutions was added to a conical vial and then cooled to 14° C. 50 μL of a 4 mM solution of Doxaz was added to each tube and hydrolysis was followed by HPLC with injections every 10 min. The pH of the buffers was measured before the addition of drug and 1.5 h after the start of hydrolysis.
Both DoxF and Doxaz are relatively stable in dry chloroform and dry DMSO over a period of days. In dry DMSO, Doxaz hydrolyzes to Doxorubicin at less than 2% per day at ambient temperature. In aqueous medium, DoxF is very hydrolytically unstable with respect to formation of Doxaz, and Doxaz is hydrolytically unstable with respect to formation of Doxorubicin. […] Consequently, HPLC was used to monitor the kinetics of hydrolysis of Doxaz to Doxorubicin at 14° C. as a function of pH. […] The hydrolysis was too rapid to measure the rate at 37° C. Extrapolation using the rough rule that the rate will double for every 10° C. increase in temperature, gives an estimation of the half-life at pH 7.4 and 37° C. of 3 to 4 min. The rate constant increases with decreasing pH except for the transition from pH 10.4 to pH 9.0 where the rate constant decreases slightly. At pH 10.5 the solution appears purple, indicative of deprotonation at one of the hydroquinone functional groups. […] The higher rate at low pH is consistent with acid catalysis, probably assisting hydrolytic ring opening as the slow step. […]

Each structure is given as a SMILES string. Where two headings read alike, the source gives them in different places.

Chain of human plasmin (P00747 581-810 limits assumed): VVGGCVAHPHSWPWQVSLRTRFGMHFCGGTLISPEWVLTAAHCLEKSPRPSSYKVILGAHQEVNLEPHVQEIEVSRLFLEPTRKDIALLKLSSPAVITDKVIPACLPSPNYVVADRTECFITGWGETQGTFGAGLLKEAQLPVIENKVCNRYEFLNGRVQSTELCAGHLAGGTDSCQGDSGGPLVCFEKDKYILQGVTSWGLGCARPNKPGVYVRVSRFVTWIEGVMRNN
Chain of human plasmin (P00747 97-580 partner limits assumed): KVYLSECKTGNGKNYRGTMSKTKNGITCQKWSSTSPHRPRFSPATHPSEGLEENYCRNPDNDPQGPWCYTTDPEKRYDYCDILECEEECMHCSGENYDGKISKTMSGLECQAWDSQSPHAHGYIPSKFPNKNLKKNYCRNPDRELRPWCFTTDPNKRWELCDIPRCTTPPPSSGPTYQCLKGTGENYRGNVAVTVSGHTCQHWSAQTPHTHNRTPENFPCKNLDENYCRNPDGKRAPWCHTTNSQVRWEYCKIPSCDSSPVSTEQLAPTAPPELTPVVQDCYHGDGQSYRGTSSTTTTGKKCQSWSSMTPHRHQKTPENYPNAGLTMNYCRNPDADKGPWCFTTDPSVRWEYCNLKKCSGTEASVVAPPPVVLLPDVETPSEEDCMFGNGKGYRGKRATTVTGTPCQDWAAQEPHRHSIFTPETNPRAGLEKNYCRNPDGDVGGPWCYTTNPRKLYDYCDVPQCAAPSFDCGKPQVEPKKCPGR

In the case of `COc1cccc2c1C(=O)c1c(O)c3c(c(O)c1C2=O)C[C@@](O)(C(=O)CO)C[C@@H]3O[C@H]1C[C@H]2[C@H](OCN2C(=O)OCc2ccc(NC(=O)[C@H](CCCCN)NC(=O)[C@H](Cc3ccccc3)NC(=O)[C@@H](C)N)cc2)[C@H](C)O1` [Formula IV, D-Ala-L-Phe-L-Lys-p-aminobenzyloxycarbonyl-Doxaz], the half-life at human plasmin was around 6 min.

With `COc1cccc2c1C(=O)c1c(O)c3c(c(O)c1C2=O)C[C@@](O)(C(=O)CO)C[C@@H]3O[C@H]1C[C@@H]2NCO[C@@H]2[C@H](C)O1` [Doxaz, Doxazolidine], the “Improvement relative to Doxorubicin in a clinical trial” value in the data set on liver cancer was 75%. The half-life at 100 µM is 3 to 4 min in data set [1] (20 mM TEAA buffer, pH 7.4, aqueous media, pH 7.4, 37° C., extrapolated from 14° C. (rate doubles per 10° C.), read-out: Half-life for hydrolysis of Doxaz to Doxorubicin at 37° C.); 16 min in data set [1] (20 mM TEAA buffer, pH 7.5, pH 7.5, 14° C., 20 mM TEAA buffer, read-out: Half-life for hydrolysis of Doxaz to Doxorubicin at 14° C.); around 3 min in data set [1] (20 mM triethylammonium acetate (TEAA) buffer, pH 7.4, after prodrug activation near a tumor / in vivo, read-out: Half-life of Doxaz (conversion to Doxorubicin) after release).
